According to publication PMC11091976, “Shorter Peptide Nucleic Acid Probes Improve Affibody-Mediated Peptide Nucleic Acid-Based Pretargeting” (ACS Pharmacology & Translational Science, 2024):

Experiments:
[1] = tested on: HP9; assay: UV melting of PNA:PNA duplex with primary probe HP9; format: physicochemical; conditions: UV 260 nm, 20-95 °C at 1 °C/min, 5 μM each probe, 10 mM phosphate buffer, 10 mM KCl, pH 7.4
Method: (§1) The melting temperatures of secondary probes after duplex formation with primary probes were also measured by monitoring the absorbance at 260 nm as a function of temperature (see Figure S23). All probe pairs had melting temperatures well above 37 °C (body temperature) and ranged from 51 °C for the HP6:HP19 pair with 6 complementary bases to 82 °C for the previously studied HP15:HP18 pair with 15 complementary bases (see Figure 3B and Table 2). […] This secondary structure is typically adopted by antiparallel and L-amino acid-modified PNA–PNA duplexes at neutral pH.[49]
(§2) Figure S23: Normalized temperature melting profiles from 20–95°C for different primary and secondary probe pairs. UV melting curves at 260 nm. (A) HP15 (15-mer) toward secondary 15-, 12- and 9-mers. (B) HP12 (12-mer) toward secondary 12-, 9-, 8-, 7- and 6-mers. (C) HP9 (9-mer) toward secondary 9-, 8-, 7- and 6-mers. (D) HP6 (6-mer) toward secondary 6-mer.
(§3) Concentrations of duplexes in A–D are 5 μM in 10 mM […] with 10 mM KCl at pH 7.4.
(§4) (also on this page, place not known: Fraction melted Fraction meltedFraction melted Fraction melted) […]
(§5) Supplementary Material and methods […]
(§6) Biophysical characterization of PNA:PNA duplexes using CD Spectroscopy and […]
(§7) Circular dichroism (CD) and UV melts of PNA:PNA duplexes were measured on a CD spectrometer (Applied Photophysics, Leatherhead, UK) with Peltier temperature control and an external temperature probe. RP-HPLC purified and lyophilized PNA probes were dissolved in 10 mM phosphate buffer with 10 mM KCl at pH 7.4. Samples contained both primary and complementary secondary PNA probes at a final concentration of 5 µM for each probe. These samples were initially heated to 95°C for five minutes, allowed to cool to room temperature, and then transferred to a quartz cuvette with a 1.0 cm path length. A temperature probe was inserted into the solution through the cuvette's rubber cap. […]
(§8) from 20°C to 95°C with a 1°C/min temperature gradient. Simultaneously, the UV absorbance at 260 nm was recorded as a function of temperature. Fraction melted data was calculated […]
(§9) Fraction melted = 1 ― UVds― UVss , where UVss and UVds are the UV absorbances at 95°C and 20°C, respectively. The melting temperature (Tm) was determined as the maximum of the first derivative of the melting curve and was computed using the Global 3 analysis software (Applied Photophysics, […]
(§10) CD spectra in the range of 200–300 nm were recorded for all hybridized PNA:PNA pairs at 20°C before and after the UV melting experiments. All CD spectra were baseline subtracted and presented as an average of five scans.

[2] = tested on: HP15; assay: UV melting of PNA:PNA duplex with primary probe HP15; format: physicochemical; conditions: UV 260 nm, 20-95 °C at 1 °C/min, 5 μM each probe, 10 mM phosphate buffer, 10 mM KCl, pH 7.4
Method: as §1, §2, §3, §4, §5, §6
Circular dichroism (CD) and UV melts of PNA:PNA duplexes were measured on a CD spectrometer (Applied Photophysics, Leatherhead, UK) with Peltier temperature control and an external temperature probe. […]
as §8, §9
CD spectra in the range of 200–300 nm were recorded for all hybridized PNA:PNA pairs at 20°C before and after the UV melting experiments. […]

[3] = Solubility of secondary probes in labeling buffer; format: physicochemical; conditions: 0.2 M NH4Ac, pH 5.5, 25 °C
Method: However, as we moved to shorter PNA oligomers, solubility saw a substantial, nonlinear increase. […] For example, at 25 °C, the maximum soluble concentration of HP17 (12-mer) was around 6 μM. […]
pH 5.5 at 25°C. Dilution series of HPLC-purified and lyophilized secondary probes (1, 3, 6, 9, 13, 26, 39, 52 and 65 µM) for […]
samples were heated at 95°C for five minutes and concentration of the soluble fraction was determined by UV absorption at 260 nm before (grey bars), and after (black bars) an 18-hour static incubation at 25°C. Duplicates were prepared of all samples and the data is presented as the mean ± SD. The maximum soluble concentration of each probe, indicated in panels A-E as a dotted line, was defined as the highest concentration at which at least 95% is still in the soluble fraction after an 18-hour incubation at 25°C. PNA-aggregates are temperature-labile, as exemplified in panel C for 82 µM HP17.
After an 18-hour incubation 25°C, 6 µM is left in the soluble fraction (left black bar) but heating the sample at 95 °C for five minutes completely redissolved HP17 aggregates into solution (right black bar).
(1 picture or pasted object on this page, not shown here)
Supplementary Material and methods
Solubility of secondary probes
HPLC-purified and freeze-dried secondary probes were resuspended in 10 mM NaAc, pH 3.5-3.6 and freeze-dried in smaller aliquots. The secondary probes were re-dissolved in 0.2 M NH4Ac, pH 5.5, and the samples were heated at 95 °C for five minutes to ensure complete dissolvement. Dilution series of secondary probes (1, 3, 6, 9, 13, 26, 39, 52 and 65 μM) for […]
NH4Ac, pH 5.5. The samples were then left for an 18-hour static incubation at 25 C, before being centrifugated at 21,100 x g for 5 minutes on a standard benchtop centrifuge (Eppendorf). The supernatants were transferred to fresh 1.5 mL Eppendorf-tubes, and the […]

[4] = tested on: HP12; assay: UV melting of PNA:PNA duplex with primary probe HP12; format: physicochemical; conditions: UV 260 nm, 20-95 °C at 1 °C/min, 5 μM each probe, 10 mM phosphate buffer, 10 mM KCl, pH 7.4
Method: as §1, §2, §3, §4, §5, §6, §7, §8, §9, §10

[5] = tested on: SKOV-3 xenografts; assay: Biodistribution with preinjection of primary agent (pretargeting); set-up: species or system BALB/C nu/nu mice; conditions: mouse, in vivo
From the text: Biodistribution measurements of all radiolabeled PNA-based probes indicated rapid clearance from the blood as well as from other organs and tissues, which is a crucial requirement for the success of in vivo pretargeting strategies.
Animal studies were planned in agreement with EU Directive 2010/63/EU for animal experiments and Swedish national legislation concerning the protection of laboratory animals and were approved by the Ethics Committee for Animal Research in Uppsala, Sweden (animal permission C4/16). HER2-positive xenografts were implanted by subcutaneous injection of 10^7 SKOV-3 cells in the right hind legs of female BALB/C nu/nu mice. Three weeks after implantation, mice were randomized into 8 groups, with 4 mice in each group. At the time of the experiment, the average animal weight was 20 ± 1 g. The average tumor weight was 0.26 ± 0.14 g. The mice were euthanized at predetermined time points by overdose of Ketamine/Xylazine anesthesia, followed by heart puncture. The organs of interest such as blood, lung, liver, spleen, kidney, muscle, bone, and tumor were collected, weighed, and subsequently their radioactivity was measured. Organs and tumor uptake were calculated as the percentage of the injected dose per gram of the sample (%ID/g). […]

Molecule	Tm [1]	Tm [2]	increase in solubility compared to the 15-mer HP18 [3]	maximum soluble concentration ([3]; heated 95 °C 5 min, 18-h static incubation, centrifugation, UV 260 nm of supernatant, highest concentration with at least 95% still soluble, duplicates)	Tm [4]	tumor-associated activity [5]
DOTA-AEEA-SS-aacaccagg-EEY-NH2 [HP16, 9-mer secondary PNA probe with DOTA]	65 °C	73 °C	~10 fold	26 µM	68 °C	
NC(=O)[C@H](Cc1ccc(O)cc1)NC(=O)[C@H](CCC(=O)O)NC(=O)[C@H](CCC(=O)O)NC(=O)CN(CCNC(=O)CN(CCNC(=O)CN(CCNC(=O)CN(CCNC(=O)CN(CCNC(=O)CN(CCNC(=O)CN(CCNC(=O)CN(CCNC(=O)CN(CCNC(=O)[C@H](CO)NC(=O)[C@H](CO)NC(=O)COCCOCCNC(=O)CN1CCN(CC(=O)O)CCN(CC(=O)O)CCN(CC(=O)O)CC1)C(=O)Cn1cnc2c(N)ncnc21)C(=O)Cn1cnc2c(N)ncnc21)C(=O)Cn1ccc(N)nc1=O)C(=O)Cn1cnc2c(N)ncnc21)C(=O)Cn1ccc(N)nc1=O)C(=O)Cn1ccc(N)nc1=O)C(=O)Cn1cnc2c(N)ncnc21)C(=O)Cn1cnc2c(=O)[nH]c(N)nc21)C(=O)Cn1cnc2c(=O)[nH]c(N)nc21 [[^177Lu]Lu-HP16, metal not drawn]						1.91 ± 0.831 %ID/g
